Laboratory results as given in the CheMixHub viscosity set.

Assay: xn = mol fraction of the nth substance listed

COc1ccccc1N + ClC(Cl)C(Cl)Cl
viscosity [mPa·s], 100 kPa
Settings | x1 = 0.0911 | x1 = 0.1962 | x1 = 0.2806 | x1 = 0.3816 | x1 = 0.4976 | x1 = 0.6023 | x1 = 0.7116 | x1 = 0.8104 | x1 = 0.9212
303.15 K | 1.786 | 2.165 | 2.464 | 2.82 | 3.224 | 3.584 | 3.957 | 4.291 | 4.66
308.15 K | 1.673 | 2.029 | 2.309 | 2.639 | 3.013 | 3.347 | 3.692 | 4.001 | 4.337
313.15 K | 1.562 | 1.895 | 2.154 | 2.458 | 2.802 | 3.111 | 3.427 | 3.709 | 4.012

OC[C@H](O)C(O)[C@@H](O)CO + OC[C@@H](O)[C@@H](O)CO
101 kPa, x1 = 0.36
Settings | viscosity [mPa·s]
293.2 K | 1329000
298.2 K | 611700
303.2 K | 294200
308.1 K | 154700
313.2 K | 79520
318.2 K | 42740
323 K | 23480

COc1ccccc1N + CC(C)(C)O
viscosity [mPa·s], 101 kPa
Settings | x1 = 0.1116 | x1 = 0.186 | x1 = 0.2667 | x1 = 0.3547 | x1 = 0.4852 | x1 = 0.5945 | x1 = 0.6737 | x1 = 0.7585 | x1 = 0.8979
303.15 K | 3.186 | 3.335 | 3.499 | 3.676 | 3.932 | 4.141 | 4.289 | 4.448 | 4.714
308.15 K | 2.904 | 3.046 | 3.199 | 3.363 | 3.602 | 3.797 | 3.935 | 4.083 | 4.327
313.15 K | 2.371 | 2.521 | 2.681 | 2.855 | 3.114 | 3.333 | 3.493 | 3.669 | 3.962
318.15 K | 1.967 | 2.116 | 2.277 | 2.451 | 2.718 | 2.95 | 3.123 | 3.314 | 3.639

COC(C)=O + CCO
298.15 K, 101.33 kPa
Settings | viscosity [mPa·s]
x1 = 0.1146 | 0.833
x1 = 0.2045 | 0.695
x1 = 0.3207 | 0.574
x1 = 0.4245 | 0.506
x1 = 0.5004 | 0.467
x1 = 0.6077 | 0.438
x1 = 0.7989 | 0.399
x1 = 0.8802 | 0.39

O=C(O)c1ccccc1 + CO
viscosity [mPa·s]
Settings | 298.15 K | 303.15 K | 308.15 K | 313.15 K | 318.15 K
101 kPa, x1 = 0.15 | – | 1.196 | – | – | 0.9466
101 kPa, x1 = 0.151 | 1.311 | 1.196 | 1.098 | 1.014 | 0.9466
101 kPa, x1 = 0.16 | – | 1.29 | – | – | 1.002
101 kPa, x1 = 0.179 | – | 1.36 | 1.25 | 1.147 | 1.053
101 kPa, x1 = 0.18 | – | 1.36 | – | – | 1.053
101 kPa, x1 = 0.2 | – | – | – | – | 1.133
101.33 kPa, x1 = 0.15 | 1.311 | 1.196 | 1.098 | 1.014 | 0.9466
101.33 kPa, x1 = 0.1514 | – | 1.196 | – | – | 0.9466
101.33 kPa, x1 = 0.1626 | – | 1.29 | – | – | 1.002
101.33 kPa, x1 = 0.1788 | – | 1.36 | – | – | 1.053
101.33 kPa, x1 = 0.18 | – | 1.36 | 1.25 | 1.147 | 1.053
101.33 kPa, x1 = 0.1961 | – | – | – | – | 1.133
